Data as given in PubChem BioAssay (NCI).
“And” between values parts separate entries of the source, which are not always exact repeats. Equal values may be shown once.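 Cultured in 96-well plates, cells were exposed to test compound for 48 hours across five concentrations. The concentration for 50% growth inhibition is given as GI50. The concentration for full growth arrest is given as TGI.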 Where a SMILES comes first, the peptide text is derived from it. [ ]: non-standard residue; d: D form. The star is where a group is joined. ξ: configuration not given here. X16 = COC1=CC(=O)N(C(=O)C(O*)C(C)C)C1Cc1ccccc1; ξNMe2Val = CC(C)C(C(=O)*)N(C)C; NMeV = CN[CH](C(=O)O)C(C)C

How the values were obtained:
Assay in all cases: NCI tumour cell line growth inhibition, 48 h
DLD-1 colon = test system: DLD-1 colon
DMS 114 small cell lung = test system: DMS 114 small cell lung
DMS 273 small cell lung = test system: DMS 273 small cell lung
HOP-18 NSCLC = test system: HOP-18 NSCLC
SNB-78 CNS = test system: SNB-78 CNS
XF 498 CNS = test system: XF 498 CNS
KM20L2 colon = test system: KM20L2 colon
RXF-631 renal = test system: RXF-631 renal
P388/ADR leukemia = test system: P388/ADR leukemia
SN12K1 renal = test system: SN12K1 renal
P388 leukemia = test system: P388 leukemia

On1c(-c2ccccc2)c(-c2c(-c3ccccc3)n(O)c3ccccc23)c2ccccc21
TGI (DLD-1 colon): > 100 µM | TGI (DMS 114 small cell lung): 66 µM | TGI (DMS 273 small cell lung): > 100 µM | TGI (HOP-18 NSCLC): 86.3 µM | TGI (SNB-78 CNS): > 100 µM | TGI (XF 498 CNS): 71 µM

COC(=O)/C(=C/c1ccc(OC)cc1)C(C(=O)O)=C(C)C
TGI (DLD-1 colon): > 100 µM | TGI (DMS 114 small cell lung): > 100 µM | TGI (DMS 273 small cell lung): > 100 µM | TGI (HOP-18 NSCLC): > 100 µM | TGI (KM20L2 colon): > 100 µM | TGI (SNB-78 CNS): > 100 µM

CN(C)[C@@H]1C(=O)C(C(N)=O)=C(O)[C@@]2(O)C(=O)C3=C(O)c4c(O)cccc4C[C@H]3C[C@@H]12
TGI (DLD-1 colon): 10.8 µM | TGI (DMS 114 small cell lung): 6.41 µM | TGI (HOP-18 NSCLC): 3.56 µM | TGI (KM20L2 colon): 6.18 µM

O=c1[nH]cnc2c1nnn2CCCn1nnc2c(=O)[nH]cnc21
TGI (DLD-1 colon): > 100 µM | TGI (DMS 114 small cell lung): > 100 µM | TGI (DMS 273 small cell lung): > 100 µM | TGI (HOP-18 NSCLC): > 100 µM | TGI (KM20L2 colon): > 100 µM | TGI (SNB-78 CNS): > 100 µM | TGI (XF 498 CNS): > 100 µM

OCC(O)COc1ccc(Br)cc1 (configuration not stated)
TGI (DLD-1 colon): > 100 µM | TGI (DMS 114 small cell lung): > 100 µM | TGI (DMS 273 small cell lung): > 100 µM | TGI (HOP-18 NSCLC): > 100 µM | TGI (KM20L2 colon): > 100 µM | TGI (RXF-631 renal): > 100 µM | TGI (XF 498 CNS): > 100 µM

COC1/C=C\C=C(/C)C(=O)NC2=CC(=O)C(NCCCl)=C(CC(C)CC(OC)C(O)C(C)/C=C(/C)C1OC(N)=O)C2=O (configuration not stated)
TGI (DLD-1 colon): 11.6 µM | TGI (DMS 114 small cell lung): 1.6 µM | TGI (DMS 273 small cell lung): 1.1 µM | TGI (HOP-18 NSCLC): 1.72 µM | TGI (KM20L2 colon): 0.385 µM | TGI (SNB-78 CNS): 19.2 µM | TGI (XF 498 CNS): 8.85 µM

O=C(NCCNCCO)N/N=C/c1cccc([N+](=O)[O-])c1
TGI (DLD-1 colon): > 100 µM | TGI (DMS 114 small cell lung): > 100 µM | TGI (DMS 273 small cell lung): > 100 µM | TGI (HOP-18 NSCLC): > 100 µM | TGI (KM20L2 colon): > 100 µM | TGI (SNB-78 CNS): > 100 µM

CS(=O)(=O)NNS(=O)(=O)c1ccc(Br)cc1
TGI (DLD-1 colon): > 100 µM | TGI (DMS 114 small cell lung): > 100 µM | TGI (DMS 273 small cell lung): > 100 µM | TGI (HOP-18 NSCLC): > 100 µM | TGI (KM20L2 colon): > 100 µM | TGI (SNB-78 CNS): > 100 µM | TGI (XF 498 CNS): > 100 µM

COC1=CC(=O)N(C(=O)C(OC(=O)C2CCCN2C(=O)C2CCCN2C(=O)C(C(C)C)N(C)C(=O)C(NC(=O)C(C(C)C)N(C)C)C(C)C)C(C)C)C1Cc1ccccc1 (configuration not stated) (ξNMe2Val-V[NMeV]PP-X16; configuration not given here)
GI50 (DLD-1 colon): < 0.0004 µM | TGI (DLD-1 colon): > 4 µM | GI50 (DMS 114 small cell lung): < 0.0004 µM | TGI (DMS 114 small cell lung): 0.00601 µM and 0.00714 µM | GI50 (DMS 273 small cell lung): < 0.0004 µM | TGI (DMS 273 small cell lung): < 0.0004 µM | GI50 (HOP-18 NSCLC): > 4 µM | TGI (HOP-18 NSCLC): > 4 µM | GI50 (KM20L2 colon): < 0.0004 µM | TGI (P388/ADR leukemia): 0.556 µM | TGI (SN12K1 renal): 0.000527 µM | GI50 (SNB-78 CNS): < 0.0004 µM | TGI (SNB-78 CNS): 0.811 µM | GI50 (XF 498 CNS): < 0.0004 µM

c1ccc2[nH]c(-c3nc4ccccc4o3)nc2c1
TGI (DLD-1 colon): > 100 µM | TGI (DMS 114 small cell lung): > 100 µM | TGI (DMS 273 small cell lung): > 100 µM | TGI (KM20L2 colon): > 100 µM | TGI (SNB-78 CNS): > 100 µM | TGI (XF 498 CNS): > 100 µM

C=CCN1C(=O)CS/C1=N\NC(=O)c1c(C)nc2sccn12
TGI (DLD-1 colon): > 100 µM | TGI (DMS 114 small cell lung): > 100 µM | TGI (DMS 273 small cell lung): > 100 µM | TGI (HOP-18 NSCLC): > 100 µM | TGI (KM20L2 colon): > 100 µM | TGI (RXF-631 renal): > 100 µM | TGI (XF 498 CNS): > 100 µM

Oc1c(Cl)c2nccnc2c2ccccc12
TGI (DLD-1 colon): > 100 µM | TGI (DMS 114 small cell lung): > 100 µM | TGI (DMS 273 small cell lung): > 100 µM | TGI (HOP-18 NSCLC): > 100 µM | TGI (KM20L2 colon): > 100 µM | TGI (SNB-78 CNS): > 100 µM | TGI (XF 498 CNS): > 100 µM

Cc1ccc(OP2(=O)Oc3ccc4ccccc4c3CN2c2ccc(Cl)cc2)cc1C (configuration not stated)
TGI (DLD-1 colon): > 100 µM | TGI (DMS 114 small cell lung): > 100 µM | TGI (DMS 273 small cell lung): > 100 µM | TGI (HOP-18 NSCLC): > 100 µM | TGI (KM20L2 colon): > 100 µM | TGI (P388 leukemia): > 100 µM | TGI (P388/ADR leukemia): > 100 µM | TGI (SN12K1 renal): > 100 µM | TGI (SNB-78 CNS): > 100 µM | TGI (XF 498 CNS): > 100 µM

c1cnc2c(c1)-n1cccc1C1(CCOCC1)NN2
TGI (DLD-1 colon): > 100 µM | TGI (DMS 114 small cell lung): > 100 µM | TGI (DMS 273 small cell lung): > 100 µM | TGI (HOP-18 NSCLC): > 100 µM | TGI (KM20L2 colon): > 100 µM | TGI (XF 498 CNS): > 100 µM

Cc1ccc(-c2cc(-c3ccco3)nc(N)n2)o1
TGI (DMS 273 small cell lung): > 100 µM | TGI (KM20L2 colon): > 100 µM | TGI (SNB-78 CNS): > 100 µM | TGI (XF 498 CNS): > 100 µM

CC(C)(C)C1CC[C@H]2c3c([nH]c4ccc(Br)cc34)[C@H]3C(=O)N(c4ccccc4)C(=O)[C@H]3[C@H]2C1 (some centres not stated)
TGI (DLD-1 colon): > 100 µM | TGI (DMS 114 small cell lung): 69.1 µM | TGI (DMS 273 small cell lung): 22.4 µM | TGI (HOP-18 NSCLC): > 100 µM | TGI (KM20L2 colon): > 100 µM | TGI (RXF-631 renal): 19.5 µM | TGI (SNB-78 CNS): 33.4 µM | TGI (XF 498 CNS): 38.2 µM

C=C/C(C)=C/[C@H](C)C(=O)C[C@H](O)CC1CC(=O)NC(=O)C1
TGI (DLD-1 colon): > 100 µM | TGI (DMS 114 small cell lung): > 100 µM | TGI (DMS 273 small cell lung): > 100 µM | TGI (HOP-18 NSCLC): > 93.6 µM | TGI (KM20L2 colon): > 100 µM | TGI (P388 leukemia): > 100 µM | TGI (P388/ADR leukemia): > 100 µM | TGI (SN12K1 renal): > 100 µM | TGI (SNB-78 CNS): > 100 µM | TGI (XF 498 CNS): 9.91 µM
